Measurements reported in patent US20240293343A1, “Benzylideneaminoguanidine derivatives as NR2B-selective NMDA receptor antagonists and their therapeutic applications” (InFlectis BioScience, priority 2023, published 2024).
Read-outs that look alike come from different tables or passages of the source.

Legend:
NMDAR (NR1A/NR2B) = biological target: T1, NMDAR (NR1A/NR2B) (Homo sapiens, UniProt Q05586+Q13224); assay: NMDAR (NR1A/NR2B) Human Glutamate Ion Channel Cell Based Antagonist Ca2+ Flux Assay; details: Hek293 cells expressing NMDAR subunit 1A/2B, FLIPR Tetra; read-out: IC50, antagonist activity on Ca^2+ flux
T1 construct: host or cells: HEK293
T1 sequence (Q13224 27-1484, other chains not shown): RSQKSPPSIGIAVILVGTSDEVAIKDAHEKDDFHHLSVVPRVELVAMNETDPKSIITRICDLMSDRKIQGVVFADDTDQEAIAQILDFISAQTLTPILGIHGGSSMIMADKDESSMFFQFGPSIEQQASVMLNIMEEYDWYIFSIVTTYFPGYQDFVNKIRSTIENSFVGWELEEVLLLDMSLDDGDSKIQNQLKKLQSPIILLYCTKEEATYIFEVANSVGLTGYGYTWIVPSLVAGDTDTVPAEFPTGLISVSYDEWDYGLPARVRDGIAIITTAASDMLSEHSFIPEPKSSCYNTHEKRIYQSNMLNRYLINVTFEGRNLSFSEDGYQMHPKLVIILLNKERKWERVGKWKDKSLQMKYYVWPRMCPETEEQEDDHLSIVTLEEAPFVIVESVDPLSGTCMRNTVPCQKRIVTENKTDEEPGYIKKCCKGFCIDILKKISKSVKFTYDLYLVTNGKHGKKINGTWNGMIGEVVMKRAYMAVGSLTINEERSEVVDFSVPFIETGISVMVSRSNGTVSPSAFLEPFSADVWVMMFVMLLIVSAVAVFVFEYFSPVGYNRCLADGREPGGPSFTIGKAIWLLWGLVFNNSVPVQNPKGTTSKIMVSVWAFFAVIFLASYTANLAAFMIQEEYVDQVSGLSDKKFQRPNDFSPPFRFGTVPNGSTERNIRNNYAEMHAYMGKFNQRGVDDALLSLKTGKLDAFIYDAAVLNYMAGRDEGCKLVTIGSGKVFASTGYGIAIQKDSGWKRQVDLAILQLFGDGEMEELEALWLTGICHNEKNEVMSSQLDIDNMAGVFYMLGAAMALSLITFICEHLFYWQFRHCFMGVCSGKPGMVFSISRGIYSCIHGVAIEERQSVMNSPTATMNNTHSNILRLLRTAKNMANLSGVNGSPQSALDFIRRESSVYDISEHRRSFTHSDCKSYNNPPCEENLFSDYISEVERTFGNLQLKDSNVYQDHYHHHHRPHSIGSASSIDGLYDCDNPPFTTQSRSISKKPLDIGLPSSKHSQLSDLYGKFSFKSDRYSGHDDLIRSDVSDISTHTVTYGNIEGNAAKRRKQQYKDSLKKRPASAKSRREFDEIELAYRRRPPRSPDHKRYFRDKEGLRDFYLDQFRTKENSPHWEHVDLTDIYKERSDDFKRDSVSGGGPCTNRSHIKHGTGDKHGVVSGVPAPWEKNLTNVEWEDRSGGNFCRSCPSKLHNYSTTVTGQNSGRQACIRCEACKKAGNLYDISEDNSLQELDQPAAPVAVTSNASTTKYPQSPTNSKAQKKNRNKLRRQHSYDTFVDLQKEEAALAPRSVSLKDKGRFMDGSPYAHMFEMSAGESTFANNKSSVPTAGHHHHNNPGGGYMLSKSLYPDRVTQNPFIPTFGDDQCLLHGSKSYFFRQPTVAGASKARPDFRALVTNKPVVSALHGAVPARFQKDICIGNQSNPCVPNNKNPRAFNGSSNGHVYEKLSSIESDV
Experimental: Briefly, Hek293 cells stably transfected to express NMDAR subunit 1A/2B were seeded into 384-well microplates and incubated at 37° C. Cells were loaded with dye prior to testing. […] Cells were further incubated for 30-60 minutes at 37° C., and compound activity on calcium flux was measured on a FLIPR Tetra (MDS).

[1] = biological target: T2, glycine binding to the NMDAR NR1 subunit (Rattus norvegicus, UniProt P35439); assay: NMDAR radiolabeled ligand displacement assay, MDL-105,519; details: glycine site
T2 construct: tissue Eurofins 232910/233010/234000/SafetyScreen44 Panel

ion channel of the NMDAR = assay: NMDAR radiolabeled ligand displacement assay, MK-801; format: binding, rat; details: pore channel
[2] = tested on: glutamate binding to the NMDAR NR2 subunit; assay: NMDAR radiolabeled ligand displacement assay, CGP-39653; design: species or system rat; details: glutamate site
[3] = biological target: T3, Ifenprodil binding site on the NR2B subunit (Rattus norvegicus, UniProt P35439+Q00960); assay: NMDAR radiolabeled ligand displacement assay, Ifenprodil
T3 construct: tissue Eurofins 232910/233010/234000/SafetyScreen44 Panel; host or cells: rat cerebral cortex
T3 sequence (Q00960 27-1482, other chains not shown): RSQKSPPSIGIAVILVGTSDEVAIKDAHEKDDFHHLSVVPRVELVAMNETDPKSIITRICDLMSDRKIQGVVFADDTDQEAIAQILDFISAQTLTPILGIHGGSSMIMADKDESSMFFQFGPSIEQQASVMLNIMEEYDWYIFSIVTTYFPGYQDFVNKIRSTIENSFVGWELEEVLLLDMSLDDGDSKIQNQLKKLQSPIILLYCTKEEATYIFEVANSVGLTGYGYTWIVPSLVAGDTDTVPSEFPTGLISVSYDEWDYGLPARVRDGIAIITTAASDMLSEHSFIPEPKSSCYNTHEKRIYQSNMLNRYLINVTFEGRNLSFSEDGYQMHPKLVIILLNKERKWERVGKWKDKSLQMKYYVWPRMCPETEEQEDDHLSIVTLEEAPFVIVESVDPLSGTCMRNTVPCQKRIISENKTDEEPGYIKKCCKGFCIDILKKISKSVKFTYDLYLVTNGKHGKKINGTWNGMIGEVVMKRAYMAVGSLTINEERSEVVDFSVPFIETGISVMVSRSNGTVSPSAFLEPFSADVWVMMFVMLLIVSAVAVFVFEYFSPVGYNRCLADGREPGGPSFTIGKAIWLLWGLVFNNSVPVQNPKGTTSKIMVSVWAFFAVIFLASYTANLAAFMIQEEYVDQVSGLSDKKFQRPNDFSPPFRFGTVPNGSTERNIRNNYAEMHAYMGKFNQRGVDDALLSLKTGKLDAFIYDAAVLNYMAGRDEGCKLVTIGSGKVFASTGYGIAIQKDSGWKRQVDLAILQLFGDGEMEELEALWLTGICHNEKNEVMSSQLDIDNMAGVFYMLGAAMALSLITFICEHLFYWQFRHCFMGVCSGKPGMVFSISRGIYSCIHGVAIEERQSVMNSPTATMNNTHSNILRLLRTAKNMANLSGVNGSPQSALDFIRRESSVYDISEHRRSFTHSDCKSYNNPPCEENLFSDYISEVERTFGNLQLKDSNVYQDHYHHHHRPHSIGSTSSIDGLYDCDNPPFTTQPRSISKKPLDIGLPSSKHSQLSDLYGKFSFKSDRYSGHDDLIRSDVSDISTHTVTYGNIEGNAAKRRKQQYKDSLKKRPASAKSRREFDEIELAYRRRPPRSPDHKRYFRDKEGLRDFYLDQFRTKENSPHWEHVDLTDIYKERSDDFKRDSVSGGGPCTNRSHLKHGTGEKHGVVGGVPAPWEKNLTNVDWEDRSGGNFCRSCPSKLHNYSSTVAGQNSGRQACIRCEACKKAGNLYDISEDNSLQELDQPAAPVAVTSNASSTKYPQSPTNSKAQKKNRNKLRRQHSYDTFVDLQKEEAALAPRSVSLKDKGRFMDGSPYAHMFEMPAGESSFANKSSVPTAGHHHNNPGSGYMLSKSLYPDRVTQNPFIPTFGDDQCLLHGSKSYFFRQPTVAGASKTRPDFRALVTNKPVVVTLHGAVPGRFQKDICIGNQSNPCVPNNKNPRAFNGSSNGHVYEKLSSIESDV

[4] = human, cited from earlier work
[5] = tested on: NMDA-induced currents / cytosolic Ca^2+ load; details: Ruiz et al. 2020; cited from earlier work
[6] = solid and solution states; cited from earlier work
sciatic nerve injury = assay: Mouse model of sciatic nerve injury (toe spreading, electromyography, histology); format: in vivo, mice (Swiss CD-1); details: 1.5 mg/kg once daily per os
Experimental: 6-week-old Swiss (CD-1) male mice were provided by Janvier Labs and housed in an animal facility in a day/night inversed cycle. […] Mice were anesthetized with ketamine chlorohydrate (100 mg/kg) and xylazine (10 mg/kg) and placed on a heating pad. Skin was incised and the sciatic nerve exposed at mid-thigh level and lesioned with fine forceps to ensure peripheral injury. The nerve was crushed twice with a haemostatic forceps (width 1.5 mm; Koenig, Strasbourg, France) with a 90-degree rotation between each crush. The skin incision was sutured, and mice were allowed to recover isolated until the end of anesthesia. The hind limb, contralateral to the lesion, served as uninjured control. Analgesia was induced prior surgery and the following days with bunepronorphine (0.1 mg/kg). […] The loss of nerve function recovered progressively over a 4-5 weeks period after mechanical insult.
At day 0, on day 7, and on day 14 and day 21 post-surgery, the functionality of the nerve fibers was determined with an electromyography apparatus (Dantec, Natus, France), on the ipsilateral side and contralateral side. […] The compound muscle action potential (CMAP) was measured: more precisely the amplitude (mV) and the latency (ms) of the action potential were recorded in gastrocnemius muscle after stimulation of the sciatic nerve. […]

[7] = in vivo

SMILES | IC50 (NMDAR (NR1A/NR2B)) [µM] | displacement of radiolabeled ligand MDL-105,519 [1] | displacement of radiolabeled ligand MK-801 (ion channel of the NMDAR) | displacement of radiolabeled ligand CGP-39653 [2] | IC50 [3] [µM] | other results
CC(=O)O.N=C(N)N/N=C/c1c(Cl)cccc1Cl [Compound 1, 2-(2,6-dichlorobenzylidene)hydrazine-carboximidamide acetate salt] | 0.625 | unable to displace | unable to displace | unable to displace | 0.4 | adverse events resembling those present in schizophrenia ([4]; controlled and open therapeutic trials): none of the adverse events seen with compound 1 (i.e. guanabenz) resembled those present in schizophrenia; cardiovascular side effects [4]: rare, apart from a decrease in heart rate; reported side effects [4]: drowsiness, dry mouth, dizziness and weakness; NMDA-induced currents [5]: reducing; NMDA-induced cytosolic Ca^2+ load [5]: reducing; spontaneous isomerization (E/Z) [6]: practically insignificant
N=C(N)N/N=C/c1ccc(F)cc1Cl [Compound 3, 2-(2-chloro-4-fluoro-benzylidene)hydrazine-carboximidamide] | 0.702 | unable to displace | unable to displace | unable to displace | 0.25 | recovery of toe spreading compared to control group (sciatic nerve injury): faster; recovery of toe spreading, median time (printed median survival) (sciatic nerve injury; ipsilateral paw, vehicle usually after 10 days): 8 days
N=C(N)N/N=C/c1ccc(O)cc1Cl [Compound 19, 2-(2-chloro-4-hydroxybenzylidene)hydrazine-carboximidamide] |  |  |  |  |  | adverse events resembling those present in schizophrenia ([7]; human): None of the adverse events seen with compound 2 and 19 resembled those present in schizophrenia; compound-related hypotension and dizziness ([7]; human): No clinically significant compound 2 and 19-related hypotension, and dizziness; metabolite status in human [7]: major human metabolite of compound 2
C[C@]12N[C@H](Cc3ccccc31)c1ccccc12 [MK-801] | 0.069 |  |  |  |  | 
